Data as given in patent US5496826A, “Pharmaceutical methods of using heterocyclic derivatives of N-phenylamides” (Bristol-Myers Squibb Company, priority 1994, dated 1996).

Tests used:
[1] = tested on: tonic seizure produced by 50 milliamps current through corneal electrodes (hind limb tonic extension); assay: Maximum Electroshock Test (MES); type: in vivo, female C57Bl/6 mice; details: Mus musculus, ip, 0.5 h; mice, i.p. 30 min before MES; abolition of hind limb tonic extension; read-out: MES Results: median effective dose (ED50)
Procedure: (§1) The anticonvulsive properties of the compounds of the invention were evaluated using two standard animal models of epilepsy: the maximal electroshock test (MES) and the pentylenetetrazol (PTZ)-induced seizure procedure. Melatonergic action is indicated by binding studies done in hamster hypothalamus tissue.
2. Maximum Electroshock Test
The MES procedure used is based upon the tests disclosed by Swinyard and et al in J. Pharmacol, Expt. Ther., (1952) 106, 319 and L. A. Woodbury et al in Arch. Int. Pharmocodyn, (1952), 92-97. These tests are also described in U.S. Pat. Nos. 5,242,942 and 5,240,937, respectively.
In the MES procedure, a tonic seizure was produced in female C57Bl/6 mice (17-26 g) by the delivery of a 50 milliamps current through corneal electrodes for 0.2 sec. Before testing, the animals were allowed food and water ad libitum. Compounds were injected i.p. 30 min before the MES. Reference compounds (phenytoin, carbamazepine, phenobarbital, and valproic acid) were tested at the peak of activity and at the dose range reported in the literature. Seven mice were used per group. In this test anticonvulsive activity was indicated by the abolition of the hind limb tonic extension. The median effective dose (ED50) was obtained for each compound and compared to ED50 's of reference compound(s).

[2] = tested on: pentylenetetrazol (PTZ)-induced seizures; assay: Pentylenetetrazole (PTZ)-Induced Seizure Test; type: in vivo, female C57BI/6 mice; details: 50 mg/kg i.p., mice, 30 min before 75 mg/kg PTZ i.p.
Procedure: as §1
1. Pentylenetetrazole--Induced Seizure Test
The PTZ technique employed was similar to that disclosed in P.C.T. publication WO 93/0572 (PCT/US92/07675), published on Apr. 1, 1993.
In the PTZ procedure, female C57BI/6 mice (17-26 g) were injected j.p. (vol=0.1 ml/20 g) with test compound or vehicle 30 min before i.p. administration of 75 mg/kg pentylenetetrazol. Multiple doses of reference compounds (ethosuximide, trimethadione, and pentobarbital) were tested at the peak of activity and at the dose range reported in the literature. Ten mice were used per group. After injection, mice were placed in individual observation cages and monitored for one hour. During the first thirty minutes following PTZ injection, seizure activity was recorded by measure: the latency to the onset of pre-convulsive activity (Pre) the latency to the onset of the first clonic seizure longer than five seconds (First) the latency to the onset of the first intense-generalized clonic/tonic seizure (IGS) and the length of survival (Surv Time). During the second thirty-minute period, only time of death was recorded.
Those compounds that produced a significant delay in the onset of seizure activity or delayed (or abolished) mortality when compared to that produced by vehicle (reference) were classified as anticonvulsants. Significant differences between animals treated with reference or test compounds were determined using the Student's t-test.

| SMILES | ED50 [1] | First: latency to first seizure [2] | Pre: latency to first twitch [2] | Surv Time: duration of survival [2] | Surv: survival at one hour postPTZ [2] | IGS: onset of intense, generalized seizures [2] |
| --- | --- | --- | --- | --- | --- | --- |
| CCC(=O)Nc1ccccc1-c1nc2ccccc2[nH]1 [Example 1, N-[2-(1H-benzimidazol-2-yl)phenyl] propanamide] | < 25 mg/kg |  |  |  |  |  |
| COc1ccc2[nH]c(-c3ccccc3NC(C)=O)nc2c1 [Example 15, N-[2-(5-methoxy-1H-benzimidazol-2-yl)phenyl] acetamide] |  | + (>100% controls) | + (>100% controls) | ++ (>200% controls) |  |  |
| CNC(=O)Nc1ccccc1-c1nc2ccccc2[nH]1 [Example 10, N-[2-(benzimidazol-2-yl)phenyl]-N'-methyl urea] | < 75 mg/kg | ++ (>200% controls) | + (>100% controls) | ++ (>200% controls) | ++++ (>400% controls) |  |
| COCC(=O)Nc1ccccc1-c1nc2ccccc2[nH]1 [Example 2, N-[2-(benzimidazol-2-yl)phenyl] methoxyacetamide] | < 75 mg/kg |  |  |  |  |  |
| CC(=O)Nc1ccccc1-c1nc2ccccc2s1 [Example 13, N-[2-(benzthiazol-2-yl)phenyl] acetamide] | < 25 mg/kg |  |  |  |  |  |
| CC(=O)Nc1ccccc1-c1nc2ccccc2o1 [Example 11, N-[2-(benzoxazol-2-yl)phenyl] acetamide] | < 75 mg/kg |  |  |  |  |  |
| CNC(=O)Nc1ccccc1-c1nc2ccccc2o1 [Example 12, N-[2-(benzoxazol-2-yl)phenyl]-N'-methyl urea] | < 100 mg/kg | +++ (>300% controls) | + (>100% controls) | ++ (>200% controls) | ++ (>200% controls) | + (>100% controls) |
